# From article PMC3316526, “Modulation of γ-Secretase Activity by Multiple Enzyme-Substrate Interactions: Implications in Pathogenesis of Alzheimer's Disease” (PLoS ONE, 2012)
# Columns and labels:
# [1] = molecular target: APP C99-3×FLAG (human); assay: AlphaScreen or HTRF; increasing fresh C99 incubated 3 h with 10 nM 3D6 antibody coupled to both donor and acceptor beads; signal only if C99 dimerization/oligomerization brings two epitopes together; apparent Kd from a quadratic equation specific for dimerization (dimer to monomers)
# [2] = molecular target: γ-secretase (CHAPSO enriched γ-secretase membranes) (not stated (endogenous mouse in MEF, or human presenilin 1 transduced) | mouse (endogenous in MEF)) (UniProt P49768)
# [3] = test system: γ-secretase; assay: γ-Secretase reaction premixed with synthetic Aβ peptides (AICD production, urea gels of Aβ products); assay type: biochemical; conditions: for effect on the rate of AICD production: extremely high concentrations of synthetic peptide, half-saturating C99 (0.45 µM); for effect on relative difference between Aβ 1–40, Aβ 1–42 and the longer Aβ products: reaction premixed with 10 nM synthetic peptide, urea gels, [C99] = 0.45 µM, 4 hours
# Method: Figure 7 γ-Secretase is not affected by Aβ peptides present in free solution. (A) The lanes labeled as “free reaction” represent Aβ products after 4 hours of routine γ-secretase reaction at half saturating C99 substrate ([C99] = 0.45 µM). The lanes labeled as “+10 nM Aβ 1–42” and “+10 nM Aβ 1–40” represent “free reaction” premixed with synthetic Aβ 1–42 or Aβ 1–40 in a concentration equivalent that corresponds to 4 hours of free reaction. The lanes labeled “+21F12” and “+2G6” represent “free reaction” that was premixed with antibodies specific for Aβ42 or Aβ40 respectively. Both 2G6 and 21F12 antibodies bind the matching Aβ peptides very efficiently as indicated by a complete removal of the corresponding Aβ bands in the reactions with protein G beads (samples labeled as “21F12 and prot. G” and “2G6 and prot. G”). The lane “Aβ std 1-x” represents synthetic peptides as mobility standards. (B) AICD production was measured at half-saturating C99 substrate (0.45 µM) in assays that were premixed with increasing concentrations of synthetic Aβ 1–38, Aβ 1–40, Aβ 1–42, or Aβ 1–44.
# (§1) γ-Secretase assays using CHAPSO enriched membranes were performed essentially as earlier described, [37], [48], [89]. Briefly, microsomal fractions (protein concentration 10 mg/ml) from different MEF cells were solubilized in 1% CHAPSO buffer (50 mM Pipes, pH 7.0, 0.25 M sucrose, 1 mM EGTA, 1×Complete protease inhibitor mixture (Roche)) and incubated on ice for 1 h. CHAPSO was always prepared as 1% w/v fresh from a powder stock that was less than 6 months old and kept at 4°C (freshness is crucial for high activity). Next, the membrane-solubilized protein fractions were obtained as supernatant by ultracentrifugation for 1 hour at 100,000×g. The prepared CHAPSO enriched membranes were diluted two fold with 50 mM Pipes pH = 7.0, 0.25 M sucrose, 1 mM EGTA, 0.1% phosphatidylcholine, and 0.0125% phosphatidylethanolamine, plus 1×Complete protease inhibitor mixture (Roche), and left on 37°C for two to three hours. This incubation can increase the measured activity by up to 70% since it can accommodate slow reassembly of γ-secretase components that is induced by the transition from 1% CHAPSO to 0.25% CHAPSO [90]. The reactions were started by adding C99 substrate in desired concentration, the added volume was adjusted so that: i) the final CHAPSO concentration was 0.25%; ii) and final concentration of membrane proteins was 0.25 mg/ml. Fresh C99 substrate that is used immediately after purification gives the best opportunity to observe described enzymatic features and the highest activity. The assay mix was prepared in low adhesion microcentrifuge tubes, the volume was usually 25 µL. To increase sensitivity in early data points detection, and at low enzyme saturation, the assay volume was increased up to 400 µL, and the resulting reaction products were concentrated by immunoprecipitation before the gels were loaded. The reaction mix was incubated at 37°C, the time was optimized for each experiment. The AICD production remains linear for 6 hours at saturating substrate. The reaction specificity was confirmed by running identical parallel reactions that have been saturated with inhibitors specific for γ-secretase; 10 µM LY-411,575 and 10 µM DAPT [3], [4].
# (§2) AICD assays using western-blots with anti-flag αM2 monoclonal antibody, or 125-I labelled C99 autoradiography were performed as earlier described, [37]. To keep the C99 bands visible on gels in difference to the previous studies the reaction aliquots were not subjected to methanol /chloroform extraction. Briefly, the samples were separated on Nu-PAGE 12% Bis/Tris/MES/SDS-page gels (Invitrogen) at 150 V for 55 min. For 125-I-C99 assays the gels were dried and exposed for 1–2 hours to europium intensifying screens for autoradiography. […]
# [4] = test system: γ-secretase carrying presenilin 1 FAD mutation ΔE9; assay: Inhibition of total AICD production, CHAPSO enriched γ-secretase membranes, FAD mutant ΔE9; assay type: biochemical, human; conditions: for Hill's coef. / IC50: ΔE9 presenilin 1, best fit ± standard error, eqn. 3; for IC50: total AICD production, western blot; for decrease in inhibition potency relative to the WT: ΔE9 vs WT presenilin 1
# Method: (§3) Figure 9 Inhibition of WT presenilin 1 and FAD mutants by DAPT and L-685,458. CHAPSO enriched γ-secretase membranes carrying WT presenilin 1 or FAD mutations ΔE9 and G384A have been prepared and analyzed in parallel with all conditions identical. The dose response curves for DAPT [71] and L-685,458 [15] were measured by following total AICD production using western-blots with αM2 antiflag antibody as shown in Fig. 3. The results were analyzed using nonlinear regression and the equation 3 (methods).
# (§4) MEF cells, or MEF double knockout for endogenous presenilin transduced with human WT, dE9 and G384A presenilin 1 [85], were grown to confluence, scraped, and collected in pellets by centrifugation at 1000×g for 5 min. The cell pellets were re-suspended in 20 mM Pipes pH = 7.0, 140 mM KCl, 0.25 M sucrose, 5 mM EGTA, plus 1X Roche protease inhibitors cocktail, so that the total protein concentration was 10 mg/ml. Re-suspended cells were subjected to more than 20 passages in 8.010 mm cell-cracker. The resulting cell extract was subjected to 10 min centrifugation on 2000×g to remove large debris, and the fragmented membranes were collected as pellets after centrifugation for 1 hour at 100 000×g, and stored at −80°C.
# as §1, §2
# [5] = molecular target: T1, γ-secretase carrying WT presenilin 1 (Homo sapiens, UniProt P49768); assay: Inhibition of total AICD production, CHAPSO enriched γ-secretase membranes, WT presenilin 1; assay type: biochemical; conditions: best fit ± standard error, eqn. 3; for IC50: total AICD production, western blot
# T1 construct: expressed in transfected cells; host or cells: MEF double knockout for endogenous presenilin, transduced; CHAPSO-solubilised microsomal membranes
# Method: as §3, §4
# as §1, with “The assay mix was prepared in low adhesion microcentrifuge tubes, the volume was usually 25 µL. To increase sensitivity in early data points detection, and at low enzyme saturation, the assay volume was increased up to 400 µL, and the resulting reaction products were concentrated by immunoprecipitation before the gels were loaded. The reaction mix was incubated at 37°C, the time was optimized for each experiment. The AICD production remains linear for 6 hours at saturating substrate. The reaction specificity was confirmed by running identical parallel reactions that have been saturated with inhibitors specific for γ-secretase; 10 µM LY-411,575 and 10 µM DAPT [3], [4].” left out
# [6] = molecular target: T2, γ-secretase carrying presenilin 1 FAD mutation G384A (Homo sapiens, UniProt P49768, G384A); assay: Inhibition of total AICD production, CHAPSO enriched γ-secretase membranes, FAD mutant G384A; assay type: biochemical; conditions: for decrease in inhibition potency relative to the WT: G384A vs WT presenilin 1
# T2 construct: expressed in transfected cells; host or cells: MEF double knockout for endogenous presenilin, transduced; CHAPSO-solubilised microsomal membranes
# Method: as §3, §4
# as §1, with “[4]. […]” for “[4].”
# [7] = molecular target: γ-secretase; conditions: quoted without reference; read-out: IC50 in cell-based assays; cited from earlier work
# [8] = test system: γ-secretase; assay: Titration of γ-secretase activity in CHAPSO enriched membranes with LY-411,575; assay type: biochemical; conditions: total protein 0.25 mg/ml and 0.09 mg/ml
# Method: γ-Secretase assays using CHAPSO enriched membranes were performed essentially as earlier described, [37], [48], [89]. Briefly, microsomal fractions (protein concentration 10 mg/ml) from different MEF cells were solubilized in 1% CHAPSO buffer (50 mM Pipes, pH 7.0, 0.25 M sucrose, 1 mM EGTA, 1×Complete protease inhibitor mixture (Roche)) and incubated on ice for 1 h. CHAPSO was always prepared as 1% w/v fresh from a powder stock that was less than 6 months old and kept at 4°C (freshness is crucial for high activity). Next, the membrane-solubilized protein fractions were obtained as supernatant by ultracentrifugation for 1 hour at 100,000×g. The prepared CHAPSO enriched membranes were diluted two fold with 50 mM Pipes pH = 7.0, 0.25 M sucrose, 1 mM EGTA, 0.1% phosphatidylcholine, and 0.0125% phosphatidylethanolamine, plus 1×Complete protease inhibitor mixture (Roche), and left on 37°C for two to three hours. This incubation can increase the measured activity by up to 70% since it can accommodate slow reassembly of γ-secretase components that is induced by the transition from 1% CHAPSO to 0.25% CHAPSO [90]. The reactions were started by adding C99 substrate in desired concentration, the added volume was adjusted so that: i) the final CHAPSO concentration was 0.25%; ii) and final concentration of membrane proteins was 0.25 mg/ml. […]
# [9] = test system: γ-secretase; assay: Michaelis-Menten profiles for AICD, Aβ 1–40 and Aβ 1–42 in presence of DAPT; assay type: biochemical; conditions: enzyme approaching saturation with C99 substrate; DAPT 70-200 nM
# Method: Figure 3 Michaelis-Menten profiles for AICD, Aβ 1–40 and Aβ 1–42 in presence of DAPT. CHAPSO enriched γ-secretase membranes were used to measure Michaelis-Menten profiles for total AICD production in presence of 0 nM (•), 70 nM (+) and 150 nM (O) of DAPT. Michaelis-Menten profiles for Aβ 1–40 and Aβ 1–42 production were measured in presence of 0 nM (•), 100 nM (+) and 200 nM (O) of DAPT. All profiles have been analyzed using nonlinear regression and the eqn. 4 (methods). The gel strips show different concentrations of the C99 substrate and the corresponding AICD products. […] AICD was measured using antiflag M2 antibodies (as shown in the gel strip). Aβ 1–40, and Aβ 1–42 were measured using AlphaScreen® as described in methods section.
# γ-Secretase assays using CHAPSO enriched membranes were performed essentially as earlier described, [37], [48], [89]. […] This incubation can increase the measured activity by up to 70% since it can accommodate slow reassembly of γ-secretase components that is induced by the transition from 1% CHAPSO to 0.25% CHAPSO [90]. […]
# AICD assays using western-blots with anti-flag αM2 monoclonal antibody, or 125-I labelled C99 autoradiography were performed as earlier described, [37]. […] Following the washes with TBS +0.1% Tween 20, the membranes were subjected to 25 nM GAMIR (MolecularProbes), washed, and read using fluorescence at […]. […]
# [10] = molecular target: γ-secretase (CHAPSO enriched γ-secretase membranes) (not stated (endogenous mouse in MEF, or human presenilin 1 transduced) | mouse (endogenous in MEF)) (UniProt P49768); remark: listed apart in the source
# [11] = test system: patients; parameters: method as in PMID 21222550; conditions: Phase III clinical trials; cited from earlier work
# [12] = G384A presenilin 1, best fit ± standard error, eqn. 3
compound,measurement,setting,value
APP C99-3×FLAG (domain or fragment),Kd,[1],33 nM
same,"Y-axis intercept of the pre-steady-state burst in AICD production (3.0 µM C99, CHAPSO enriched γ-secretase membranes 0.25 mg/ml)",[2],8.2 nM
Aβ 1–38: synthetic Aβ 1-x standard prepared by solid phase synthesis,effect on the rate of AICD production,[3],do not affect
"CC(C)C[C@H](NC(=O)[C@H](Cc1ccccc1)C[C@@H](O)[C@H](Cc1ccccc1)NC(=O)OC(C)(C)C)C(=O)N[C@@H](Cc1ccccc1)C(N)=O [L-685,458, {1S-benzyl-4R-[1S-carbamoyl-2-phenylethylcarbamoyl-1S-3-methylbutylcarbamoyl]-2R-hydroxy-5-phenylpentyl} carbamic acid tert-butyl ester]",Hill's coef.,[4],0.98± 0.08
same,IC50,[4],707 ± 80 nM
same,decrease in inhibition potency relative to the WT,[4],10–20 fold
same,Hill's coef.,[5],1.3±0.1
same,IC50,[5],32 ± 4 nM
same,Hill's coef.,[6]; [12],1±0.13
same,IC50,"[6]; G384A presenilin 1, total AICD production, western blot, best fit ± standard error, eqn. 3",398 ± 51 nM
same,decrease in inhibition potency relative to the WT,[6],10–20 fold
Aβ 1–40: synthetic Aβ 1-x standard prepared by solid phase synthesis,effect on the rate of AICD production,[3],do not affect
same,"effect on relative difference between Aβ 1–40, Aβ 1–42 and the longer Aβ products",[3],does not affect
Aβ 1–42: synthetic Aβ 1-x standard prepared by solid phase synthesis,effect on the rate of AICD production,[3],do not affect
same,"effect on relative difference between Aβ 1–40, Aβ 1–42 and the longer Aβ products",[3],does not affect
"C[C@H](NC(=O)[C@@H](O)c1cc(F)cc(F)c1)C(=O)N[C@@H]1C(=O)N(C)c2ccccc2-c2ccccc21 [LY-411,575]",IC50,[7],~0.1 nM
same,concentration that completely abolishes γ-secretase activity,[8],1 to 2 nM
"C[C@H](NC(=O)Cc1cc(F)cc(F)c1)C(=O)N[C@H](C(=O)OC(C)(C)C)c1ccccc1 [DAPT, N-[N-(3,5-difluorophenacetyl)-L-alanyl]-S-phenylglycine t-butyl ester]",Hill's coef.,[4],1.21±0.07
same,IC50,[4],734 ± 254 nM
same,decrease in inhibition potency relative to the WT,[4],approximately twofold
same,Hill's coef.,[5],0.7±0.2
same,IC50,[5],390 ± 179 nM
same,mode of inhibition versus C99 substrate,[9],noncompetitive inhibitor
same,Hill's coef.,[6]; [12],0.54±0.25
same,decrease in inhibition potency relative to the WT,[6],about 1000 fold
NotchΔE substrate (NotchΔE-3xFLAG) (domain or fragment),"AICD production from 125-I labeled C99 at half-saturating C99 (0.44-0.45 µM) with increasing NotchΔE substrate: activation, then inhibition only at higher NotchΔE concentrations",[10],85%
CC(C)[C@H](O)C(=O)N[C@@H](C)C(=O)N[C@@H]1C(=O)N(C)CCc2ccccc21 [semagacestat],effect on cognitive decline in patients,[11],can accelerate the cognitive decline
Aβ 1–44: synthetic Aβ 1-x standard prepared by solid phase synthesis,effect on the rate of AICD production,[3],do not affect
